Laboratory results taken from PMC6154322, “Anti-Trypanosomatid Elemanolide Sesquiterpene Lactones from Vernonia lasiopus O. Hoffm ^†” (Molecules : A Journal of Synthetic Chemistry and Natural …, 2017).
Values after ≈ are worked out from the molar mass of the structure shown. Values joined by “and” are separate entries in the source; they are usually repeats but may differ in a detail not shown here. Identical values can stand only once. Like-named read-outs stand apart in the source and are kept apart here.

Tests used:
[1] = system: P. falciparum chloroquine sensitive strain PoW; parameters: method as in PMID 12601673; conditions: cited from earlier work
[2] = system: P. falciparum chloroquine-resistant strain Dd2; parameters: method as in PMID 12601673; conditions: cited from earlier work
[3] = system: Trypanosoma brucei rhodesiense (bloodstream trypomastigotes, STIB 900 strain); experiment: In vitro activity against T. b. rhodesiense bloodstream trypomastigotes (STIB 900); format: cell-based; conditions: for SI (selectivity index): ratio of cytotoxic (L6) over antiprotozoal (Tbr) IC50 values
[4] = Cytotoxicity test against mammalian cells (L6); conditions: rat
[5] = system: P. falciparum (multidrug resistance strain K1); parameters: method as in PMID 24242110; conditions: cited from earlier work
[6] = system: Plasmodium falciparum (intra erythrocytic forms, NF54 IEF strain); experiment: In vitro activity against P. falciparum intra-erythrocytic forms (NF54); format: cell-based; conditions: NF54, read-out: IC50 Pf (crude extracts)
[7] = system: Leishmania donovani (amastigotes, MHOM-ET-67/L82 strain); experiment: In vitro activity against L. donovani amastigotes (MHOM-ET-67/L82); format: cell-based; conditions: Table 1, MHOM-ET-67/L82 amastigotes, values marked a: only one replicate, others mean of two ± SD, read-out: IC50 Ldon (crude extracts)
[8] = Table 3, STIB 900 trypomastigotes, pure compounds, read-out: IC50 Tbr (elemanolides), value in brackets (converted)
[9] = Trypanosoma brucei, Table 3, STIB 900 trypomastigotes, pure compounds, read-out: IC50 Tbr (elemanolides), value in brackets (converted)
[10] = Trypanosoma brucei, Table 3, STIB 900 trypomastigotes, read-out: IC50 Tbr (elemanolides)

Compound | IC50 [3, 8] | IC50 [3, 9] | IC50 [3, 10] | SI (selectivity index) [3] | IC50 [4] | also measured
11,13-Dihydrovernodalin [Compound 6] | – | – | – | – | – | IC50 P. falciparum PoW [1]: 2.3 µg/mL; IC50 P. falciparum Dd2 [2]: 1.1 µg/mL
C=CC12COC(=O)C(=C)C1C(O)C(C(=C)C(=O)OC)C(O)C2 (stereo not drawn) [Compound 1, 8-Desacylvernodalol] | 2530 nM | 2500 nM | 0.779 ± 0.22 µg/mL | 13.7 | – | IC50 ([4]; L6 rat skeletal myoblast cells): 10.7 µg/mL and 34.6 µM
C=C[C@@]12COC(=O)C(=C)[C@@H]1[C@H]1OC(=O)C(=C)[C@@H]1[C@@H](O)C2 [Compound 2, Vernolepin] | 185 nM | 190 nM | 0.05 µg/mL | 14.5 | 0.735 µg/mL and 2.68 µM | IC50 Tbr (elemanolides) ([3]; Table 3, STIB 900 trypomastigotes): 0.051 ± 0.035 µg/mL (≈ 0.185 µM); times more active than the crude extract (Tbr) ([3]; versus DCM crude extract): approximately 3.5
C=C[C@@]12COC(=O)C(=C)[C@@H]1[C@@H](O)[C@@H]1C(=C)C(=O)O[C@H]1C2 [Compound 3, Vernomenin] | – | 508 nM | 0.14 ± 0.1 µg/mL | 4.50 | 0.62 µg/mL and 2.26 µM | –
C=C[C@@]12COC(=O)C(=C)[C@@H]1[C@@H](O)[C@H](C(=C)C(=O)OC)[C@@H](OC(=O)C(=C)CO)C2 [Compound 4, Vernodalol] | 255 nM | 260 nM | 0.1 ± 0.041 µg/mL | 14.4 | – | factor by which more active than compound 1 (Tbr) ([3]; compound 4 versus compound 1): ~10; IC50 anti-plasmodial activity, P. falciparum K1 [5]: 4.2 µg/mL (≈ 10.7 µM); IC50 ([4]; L6 rat skeletal myoblast cells): 1.44 µg/mL and 3.67 µM
C=C[C@@]12COC(=O)C(=C)[C@@H]1[C@H]1OC(=O)C(=C)[C@@H]1[C@@H](OC(=O)C(=C)CO)C2 [Compound 5, Vernodalin] | – | – | – | – | – | IC50 anti-plasmodial activity, P. falciparum K1 [5]: 4.0 µg/mL (≈ 11.1 µM)
CCN(CC)CCCC(C)Nc1ccnc2cc(Cl)ccc12 (stereo not drawn) [chloroquine] | – | – | – | – | – | IC50 [6]: 0.002 µg/mL (≈ 0.00625 µM)
Nc1nc(N)nc(Nc2ccc([As]3SCC(CO)S3)cc2)n1 (stereo not drawn) [melarsoprol, reference compound] | – | – | – | – | – | IC50 ([3]; Trypanosoma brucei, read-out: IC50 Tbr (crude extracts)): 0.003 ± 0.001 µg/mL
CCCCCCCCCCCCCCCCOP(=O)([O-])OCC[N+](C)(C)C [miltefosine] | – | – | – | – | – | IC50 [7]: 0.091 ± 0.07 µg/mL (≈ 0.223 µM)
COc1cc([C@@H]2c3cc4c(cc3[C@H](O)[C@H]3COC(=O)[C@H]23)OCO4)cc(OC)c1OC [podophyllotoxin, reference compound] | – | – | – | – | 0.007 ± 0.001 µg/mL (≈ 0.0169 µM) | –
